Assay results reported in US20190315711A1 (eXIthera Pharmaceuticals, Inc., priority 2016, published 2019).

molecular target: human Factor XIa (Homo sapiens, UniProt P03951); experiment: Factor XIa enzyme inhibition assay (dose response, fluorogenic AMC substrate); format: biochemical; parameters: Enzyme: Factor XIa; details: purified enzyme; substrate 50 μM, enzyme 0.25 nM; read-out: hFXIa IC50
Experimental: • Assay buffer: 20 mM Hepes, pH 7.4; 150 mM NaCl; 0.02% Tween 20 • Compounds: 10 mM stocks in DMSO • Substrate: 20 mM Glp-Pro-Arg-AMC, 25 mg/2.3 mL H2O (store at +4° C.) [Factor XIa, thrombin, and trypsin] • 20 mM Pro-Phe-Arg-AMC (Bachem I-1295), 25 mg/2.2 mL H2O or Boc-Leu-Gly-Arg-AMC (Bachem I-1105), 25 mg/2.07 mL H2O (store at +4° C.) [Factor Xa] • Enzyme: Factor XIa; 0.25 M in 50% glycerol (20 μg/mL) • Trypsin; 0.2 μM in 50% glycerol (4.8 μg/mL) • Thrombin; 0.2 μM in 50% glycerol (7.34 μg/mL) • Factor Xa; 0.2 μM in 50% glycerol (9.2 μg/mL)
• 1. Dilute the substrate to 100 μM in assay buffer (30 μL/6 mL). The enzyme is diluted to 0.5 nM just prior to use (12 L/6 mL for Factor XIa; 15 μL/6 mL for all of the rest.) • 2. Pipette 50 μL of substrate into each well of the 96 well (12×8) microtiter plate. (Column 1 is used as the 100% activity control and receives no compound, and Column 12 is the blank and receives no enzyme.) Add an additional 46 μL to column 2. • 3. Pipette 4 μL of each compound into the appropriate well in column 2 of the plate (unknowns assayed in triplicate, standard assayed in duplicate). The final compound concentration will be 1/50th of the stock. • 4. Serially two-fold dilute the compound by mixing the sample in column 2, removing 50 μL to the next well (column 3), mix and remove to column 4, etc. until column 11. After mixing column 11, remove 50 μL and discard. • 5. Pipette 50 μL of buffer into column 12. Initiate the reaction by adding 50 μL of enzyme solution to each well of columns 1-11 as rapidly as possible. • 6. Read the plate in a spectrophotometer (SpectraMax) at 30° C., wherein each well is measured every 60 s for 30 min. For Factor Xa assays, each well is measured every 1 min for a total of 60 min. • 7. For Factor XIa assays, the compounds are assayed, in duplicate, at 3 different starting concentrations, 20, 2, and 0.2 μM; 1:10, 1:100, and 1:1000 dilution of 10 mM stock or at 2, 0.2, and 0.02 μM; 1:100, 1:1000, and 1:10,000 dilution of 10 mM stock. Data for each concentration are combined for graphing and data fitting. • 8. Data can be used both for estimation of IC50 and for estimation of Kon.
Potential inhibitors of Factor XIa were evaluated using the following assay.
PyroGlu-Pro-Arg-7-methylaminocourin (AMC), available from CPC Scientific, Inc., is based on the substrate pyro-Glu-Pro-Arg-pNA (S-2366), available from Diapharma Group, Inc. (Columbus, Ohio), wherein the p-nitroanaline group is replaced with 7-methylaminocoumarin (AMC).
The final concentration of the substrate in the assay was 50 μM, and the final concentration of the enzyme was 0.25 nM. Inhibitors were tested by serial dilution over an appropriate range to yield a dose response curve for determination of the inhibitors' IC50 value. The assay mixture was read every minute for 30 minutes in order to generate progress curves. The plates were read in a Spectramax m5 Multimode Plate Reader (Molecular Devices LLC, Sunnyvale, Calif.). Dose response curves were fit to Equation 1 below in which A is the maximum inhibition, B is the minimum inhibition, C is the IC50, and D is the Hill coefficient.
Y=[(A−B)/(1+(X/C)^D)]+B (Equation 1)

Sequence of human Factor XIa (P03951 388-625 limits assumed): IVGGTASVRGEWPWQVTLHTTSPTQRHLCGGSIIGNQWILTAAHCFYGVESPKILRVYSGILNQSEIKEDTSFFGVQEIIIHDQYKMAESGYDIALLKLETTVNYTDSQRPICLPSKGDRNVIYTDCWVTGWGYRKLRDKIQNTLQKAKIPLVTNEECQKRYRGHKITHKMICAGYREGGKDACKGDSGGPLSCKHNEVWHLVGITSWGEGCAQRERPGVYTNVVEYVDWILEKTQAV
Sequence of human Factor XIa (P03951 19-387 partner limits assumed): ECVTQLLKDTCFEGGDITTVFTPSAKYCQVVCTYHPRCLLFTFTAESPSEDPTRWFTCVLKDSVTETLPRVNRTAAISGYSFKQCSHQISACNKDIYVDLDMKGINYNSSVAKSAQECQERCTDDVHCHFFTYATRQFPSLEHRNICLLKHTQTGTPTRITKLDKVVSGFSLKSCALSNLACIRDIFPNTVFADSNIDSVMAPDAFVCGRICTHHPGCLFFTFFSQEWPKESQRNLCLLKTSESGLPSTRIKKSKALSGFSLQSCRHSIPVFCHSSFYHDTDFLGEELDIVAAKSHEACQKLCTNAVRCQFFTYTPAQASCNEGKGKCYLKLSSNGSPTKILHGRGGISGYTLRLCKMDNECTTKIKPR

**Q.** Which IC50 does the source give for Nc1cc(C[C@H]2C(=O)N(C(=O)N[C@@H](C3CCCCC3)C(F)(F)F)[C@@H]2C(=O)NC2CC2)ccn1 [Compound 1] here?
**A.** 10 to 100 nM

**Q.** How did the IC50 turn out when CCNC(=O)[C@@H]1[C@@H](Cc2ccnc(N)c2)C(=O)N1C(=O)N[C@@H](c1ccccc1)C(F)(F)F [Compound 2] was run?
**A.** 10 to 100 nM

**Q.** Cc1cccc(N(C)C(=O)[C@@H]2[C@@H](Cc3ccnc(N)c3)C(=O)N2C(=O)N[C@@H](C2CCCCC2)C(F)(F)F)c1 [Compound 14] was tested. Which IC50 did it give?
**A.** 10 to 100 nM

**Q.** How did the IC50 turn out when CN(C(=O)[C@@H]1[C@@H](Cc2ccnc(N)c2)C(=O)N1C(=O)N[C@@H](C1CCCCC1)C(F)(F)F)c1ccccn1 [Compound 16] was run?
**A.** < 10 nM

**Q.** CN(C(=O)[C@@H]1[C@@H](Cc2ccnc(N)c2)C(=O)N1C(=O)N[C@@H](C1CCCCC1)C(F)(F)F)c1ccncn1 [Compound 20] was tested. Which IC50 did it give?
**A.** < 10 nM

**Q.** Which IC50 does the source give for CC[C@@H](NC(=O)N1C(=O)[C@H](Cc2ccnc(N)c2)[C@H]1C(=O)N(C)c1ccccc1C)C1CCCCC1 [Compound 26] here?
**A.** 10 to 100 nM

**Q.** How did the IC50 turn out when CN(C(=O)[C@@H]1[C@@H](Cc2ccnc(N)c2)C(=O)N1C(=O)N[C@@H](C1CCCCC1)C(F)(F)F)c1cnccn1 [Compound 30] was run?
**A.** < 10 nM

**Q.** Which IC50 does the source give for CCN(C(=O)[C@@H]1[C@@H](Cc2ccnc(N)c2)C(=O)N1C(=O)N[C@@H](C1CCCCC1)C(F)(F)F)c1ccncc1 [Compound 33] here?
**A.** < 10 nM

**Q.** For CCN(C(=O)[C@@H]1[C@@H](Cc2ccnc(N)c2)C(=O)N1C(=O)N[C@@H](C1CCCCC1)C(F)(F)F)c1ccnc(C)c1 [Compound 34], which IC50 is on record?
**A.** < 10 nM

**Q.** How did the IC50 turn out when CN(C(=O)[C@@H]1[C@@H](Cc2ccnc(N)c2)C(=O)N1C(=O)NC1CCCc2ccccc21)c1ccccc1 (stereo partly shown) [Compound 41] was run?
**A.** 100 to 1000 nM

**Q.** With CC[C@@H](NC(=O)N1C(=O)[C@H](Cc2ccnc(N)c2)[C@H]1C(=O)N(C)c1ccccc1)c1ccncc1 [Compound 43] as the compound, how does the IC50 read?
**A.** 100 to 1000 nM

**Q.** CN(C(=O)[C@@H]1[C@@H](Cc2ccnc(N)c2)C(=O)N1C(=O)N[C@H](C1CCCCC1)C1CC1)c1ccccc1 [Compound 45] was tested. Which IC50 did it give?
**A.** < 10 nM

**Q.** Which IC50 does the source give for CC[C@@H](NC(=O)N1C(=O)[C@H](Cc2ccnc(N)c2)[C@H]1C(=O)N(C)c1ccccc1)c1ccc(OC(F)(F)F)cc1 [Compound 47] here?
**A.** 100 to 1000 nM

**Q.** Which IC50 does the source give for CC[C@@H](NC(=O)N1C(=O)[C@H](Cc2ccnc(N)c2)[C@H]1C(=O)N(C)c1ccccc1)c1ccc(F)c(F)c1 [Compound 48] here?
**A.** 100 to 1000 nM

**Q.** CN(C(=O)[C@@H]1[C@@H](Cc2ccnc(N)c2)C(=O)N1C(=O)N[C@@H](C1CCCCC1)C1CC1)c1ncccn1 [Compound 53] was tested. Which IC50 did it give?
**A.** < 10 nM

**Q.** With Cc1cc(N(C)C(=O)[C@@H]2[C@@H](Cc3ccnc(N)c3)C(=O)N2C(=O)N[C@@H](C2CCCCC2)C2CC2)ccn1 [Compound 56] as the compound, how does the IC50 read?
**A.** < 10 nM

**Q.** For CN(C(=O)[C@@H]1[C@@H](Cc2ccnc(N)c2)C(=O)N1C(N)=O)c1ccccc1 [Compound 57], which IC50 is on record?
**A.** 100 to 1000 nM

**Q.** CN(C(=O)[C@@H]1[C@@H](Cc2ccnc(N)c2)C(=O)N1C(=O)N[C@@H](c1cccnc1)C1CC1)c1ccccc1 [Compound 58] was tested. Which IC50 did it give?
**A.** 10 to 100 nM

**Q.** Which IC50 does the source give for C[C@@H](NC(=O)N1C(=O)[C@H](Cc2ccnc(N)c2)[C@H]1C(=O)N(C)c1ccccc1)c1cccnc1 [Compound 60] here?
**A.** 10 to 100 nM

**Q.** With CC[C@@H](NC(=O)N1C(=O)[C@H](Cc2ccncc2)[C@H]1C(=O)N(C)c1ccccc1)C1CCCCC1 [Compound 62] as the compound, how does the IC50 read?
**A.** 100 to 1000 nM

**Q.** For CN(C(=O)[C@@H]1[C@@H](Cc2ccncc2)C(=O)N1C(=O)N[C@@H](C1CCCCC1)C1CC1)c1ccccc1 [Compound 63], which IC50 is on record?
**A.** 100 to 1000 nM

**Q.** With CC[C@@H](NC(=O)N1C(=O)[C@H](Cc2ccncc2)[C@H]1C(=O)N(C)c1ccncc1)C1CCCCC1 [Compound 65] as the compound, how does the IC50 read?
**A.** 100 to 1000 nM

**Q.** How did the IC50 turn out when CC[C@@H](NC(=O)N1C(=O)[C@H](Cc2ccncc2)[C@H]1C(=O)N(C)c1ccccc1)c1cccnc1 [Compound 66] was run?
**A.** 100 to 1000 nM

**Q.** CN(C(=O)[C@@H]1[C@@H](Cc2ccnc(N)c2)C(=O)N1C(=O)N[C@@H](c1cccnc1)C(F)(F)F)c1ccccc1 [Compound 67] was tested. Which IC50 did it give?
**A.** 10 to 100 nM

**Q.** With CCC[C@@H](NC(=O)N1C(=O)[C@H](Cc2ccnc(N)c2)[C@H]1C(=O)N(C)c1ccccc1)c1cccnc1 [Compound 68] as the compound, how does the IC50 read?
**A.** 10 to 100 nM
